Entries after “also recorded” stand apart in the source; their conditions may differ.
Assays:
Format in all cases: cell-based, human
NT2/D1 cells [1] = test: cell viability assay (trypan blue) and DNA fragmentation analysis after STS treatment
Description: (§1) The NT2/D1 cells were seeded (5×10^6 cells per 10 cm Petri dish) in Dulbecco's modified Eagle's medium (DMEM/F-12; Invitrogen) supplemented with 10% heat inactivated fetal bovine serum (FBS; Invitrogen), 0.4 μl/ml penicillin-streptomycin (Invitrogen), and 4 mM glutamine (Invitrogen) and maintained in a humidified atmosphere of 5% CO2/95% air at 37° C. For astrocytic differentiation, 1×10^6 cells were seeded in a 6 well plate and treated three times a week for 3 weeks with 40 nM STS (Sigma). Cells were split twice a week by short exposure to trypsin/EDTA (Invitrogen). Subsequently, these NT2/A cells were evaluated for expression of astrocytic markers and […] by RT-PCR and western blot analysis. After incubation with a different time and concentration of STS, cells were trypsinized and viable cells were counted with a hemocytometer using trypan blue exclusive assay.

NT2/D1 cells [2] = test: STS-induced astrocytic differentiation, morphology by microscopy; conditions: 40 nM STS
Description: as §1
Typical fluorescent microscopic pictures of the transfected cell were taken 48 hr after the transfection in a 8 well chamber slides. The cells expressing EGFP were detected by green fluorescence.

NT2/D1 cells [3] = test: RT-PCR of astrocyte specific and APP gene expression in treated NT2 cells
Description: as §1
Total RNA was extracted from the cells and 1 μg of the RNA was reverse-transcribed and amplified using the SuperScript™ ONE STEP™ RT-PCR System (Invitrogen) with the following primers.

`CN[C@@H]1C[C@H]2O[C@@](C)([C@@H]1OC)n1c3ccccc3c3c4c(c5c6ccccc6n2c5c31)C(=O)NC4` [STS, Staurosporine] was tested, and the “start of mass cell death” value (NT2/D1 cells [1]; 40 nM STS) was 8 h, the “cell viability and DNA fragmentation” value (NT2/D1 cells [1]; STS treatment) was “cell death” and the “induction of NT2/A cells (astrocytic morphology)” value (NT2/D1 cells [2]) was “induced NT2/A cells; also recorded: induces morphological and functional differentiation”. For the same molecule, the “astrocyte specific gene expression (GFAP, LIF, Delta, Jagged-1, BMP-2, 4, BMP-7, GLT-1/EAAT-2, GLAST/EAAT-1)” value (NT2/D1 cells [3]; 40 nM STS, RT-PCR) was “induced astrocyte specific gene expression” and the APP gene expression (NT2/D1 cells [3]; during STS-induced astro-gliogenesis) was “increased in time-dependent manner; also recorded: higher expression level”.

From patent US20100196326A1, “METHOD AND SYSTEM FOR BIASING CELLULAR DEVELOPMENT” (priority 2004, published 2010)
